For one test, the system named is Sprague Dawley rats. As to the kind of experiment: Effect on systolic blood pressure, telemetry in Sprague Dawley rats. Type of test: in vivo, rat. Conditions: 0.1 mg/kg SC; for Systolic blood pressure (Mean) % change from baseline, 8 h / Systolic blood pressure (Mean) % change from baseline, 12 h / Systolic blood pressure (Mean) % change from baseline, 24 h: n=2; for Duration of action: last time point with an effect on BP still observed. How it is done:
The effect of the compounds on systolic blood pressure was determined in telemetry studies in Sprague Dawley rats at a dosage of 0.1 mg/kg SC.
The rats were previously implanted with a telemetry device (DSI, Saint-Paul, USA, HD-S10, HD-S11 or HD S21) and allowed to recover for a minimum period of 2 weeks before treatment with vehicle or the different peptides. Blood pressure (BP) was recorded through a catheter inserted into the abdominal aorta. The device body was placed in the abdomen. The animals were allowed to recover from surgery for at least 10 days before the first administration of test drug or vehicle.
The chronically instrumented rats of the telemetry studies were individually housed immediately after surgery and then housed in pairs with a non-instrumented companion after recovery.
Systolic blood pressure was recorded for one hour before treatment (basal period). Thereafter, the subcutaneous administration of the test compound or its vehicle was performed, under continuous recording of the signal up to 48 hours, analysed and expressed as % change from baseline.
Representative data are presented in Table 13 below, in which “Duration of action” indicates the last time point for which an effect on BP was still observed (n=2 animals/peptide)

For the next test, the target named is T1, CFR1R receptor (Homo sapiens, UniProt P34998).
T1 construct: host or cells: CHO-K1 (clone 2)
T1 sequence (P34998 24-415): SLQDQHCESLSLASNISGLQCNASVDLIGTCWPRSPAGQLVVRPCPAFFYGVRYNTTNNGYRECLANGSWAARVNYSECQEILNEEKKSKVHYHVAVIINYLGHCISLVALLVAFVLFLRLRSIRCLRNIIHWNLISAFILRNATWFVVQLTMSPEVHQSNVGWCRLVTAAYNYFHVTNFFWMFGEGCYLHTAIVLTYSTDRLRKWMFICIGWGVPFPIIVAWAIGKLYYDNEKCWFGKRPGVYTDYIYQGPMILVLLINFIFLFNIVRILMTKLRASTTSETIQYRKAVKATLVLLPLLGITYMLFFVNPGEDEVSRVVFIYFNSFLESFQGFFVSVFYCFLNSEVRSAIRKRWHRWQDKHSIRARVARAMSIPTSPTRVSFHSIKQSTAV
The test can be described thus: Activity at anti-target CFR1R receptor, cAMP assay in CRF1R-overexpression CHO-K1 cells. The format is cell-based. Conditions: 100% = Sauvagine at 100 nM; for EC50: cAMP. Summed up:
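Clone 2; cryopreserved stocks (10% DMSO); 4000 cells/well final; 100% activation = Sauvagine 100 nM; otherwise as TeloHAEC protocol.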

The next test deals with T2, human CRF2a receptor (Homo sapiens, UniProt Q13324).
T2 construct: expressed in transfected cells; host or cells: TeloHEAC cells
T2 sequence (Q13324 1-411): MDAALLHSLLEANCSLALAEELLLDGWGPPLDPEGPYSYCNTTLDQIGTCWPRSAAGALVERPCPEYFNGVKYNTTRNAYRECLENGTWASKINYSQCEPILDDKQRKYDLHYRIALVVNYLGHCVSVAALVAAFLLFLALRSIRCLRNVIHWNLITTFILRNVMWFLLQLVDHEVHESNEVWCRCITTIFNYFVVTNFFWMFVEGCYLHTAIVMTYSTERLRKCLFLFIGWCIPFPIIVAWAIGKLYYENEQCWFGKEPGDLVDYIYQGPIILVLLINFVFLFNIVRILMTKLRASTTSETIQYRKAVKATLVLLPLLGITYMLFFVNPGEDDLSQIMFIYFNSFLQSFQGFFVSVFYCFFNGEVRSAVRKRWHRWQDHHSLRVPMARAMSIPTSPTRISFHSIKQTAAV
The test can be described thus: Activity at human CRF2a receptor, cAMP functional assay in TeloHEAC cells. The format is cell-based. The note with it: TeloHEAC cells stably expressing human CRF2a receptor, relative to urocortin 2 (100 nM = 100%). Put shortly:
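TeloHEAC cells stably expressing human CRF2a (10000 cells/well, suspended in HBSS/20 mM HEPES with 2 mM IBMX) were exposed to compounds for 30 min at 37 °C. cAMP was read as the 665/620 nm fluorescence ratio after 1 h at room temperature. EC50 was derived relative to 100 nM urocortin 2, set as 100%.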

This note sets out measurements from patent publication US20260001928A1 (CORTERIA PHARMACEUTICALS, priority 2022, published 2026).

*1 amine or outer side, *2 acyl side, *3 side chain or, on linkers, in order; H or OH if unused. Where a SMILES comes first, the peptide text is derived from it. Side-chain parts run from the residue outwards. [ ]: non-standard residue; d: D form. The star is where a group is joined. C20 diacid = O=C(O)CCCCCCCCCCCCCCCCCCC(=O)*; C16 diacid = O=C(O)CCCCCCCCCCCCCCC(=O)*; γGlu = O=C(O)[C@H](CCC(=O)[*:2])N[*:1]; Api = NC1(C(=O)O)CCNCC1; Nva = CCC[C@H](N)C(=O)O; Hexanoyl = CCCCCC(=O)*; Pentanoyl = CCCCC(=O)*; Aib = CC(C)(N)C(=O)O

Regarding `CCCCC(=O)N[C@H](C(=O)N[C@@H](CC(C)C)C(=O)N[C@@H](CO)C(=O)N[C@@H](CC(C)C)C(=O)N[C@@H](CC(=O)O)C(=O)N[C@@H](C(=O)N1CCC[C@H]1C(=O)N[C@H](C(=O)N[C@@H](CCCCN)C(=O)N[C@@H](CC(C)C)C(=O)N[C@@H](CCCCNC(=O)CC[C@H](NC(=O)CCCCCCCCCCCCCCCCCCC(=O)O)C(=O)O)C(=O)N[C@@H](CCCCN)C(=O)N[C@H](C(=O)N[C@@H](CC(C)C)C(=O)N[C@@H](CC(C)C)C(=O)N[C@@H](CCC(=O)O)C(=O)N[C@@H](CCC(N)=O)C(=O)N[C@@H](CCC(=O)O)C(=O)N[C@@H](CCCCN)C(=O)N[C@@H](CCC(N)=O)C(=O)N[C@@H](CCCCN)C(=O)NC(C)(C)C(=O)N[C@@H](CCC(N)=O)C(=O)N[C@@H](CCCNC(=N)N)C(=O)N[C@@H](CCC(=O)O)C(=O)N[C@@H](CCC(N)=O)C(=O)N[C@@H](C)C(=O)N[C@@H](CCC(=O)O)C(=O)N[C@H](C(=O)N[C@@H](CC(N)=O)C(=O)NC(C)(C)C(=O)N[C@@H](CCC(N)=O)C(=O)N[C@H](C(=O)N[C@@H](CC(C)C)C(=O)N[C@@H](C)C(=O)N[C@@H](CCC(N)=O)C(=O)N[C@H](C(N)=O)C(C)C)[C@@H](C)CC)[C@@H](C)O)[C@@H](C)CC)[C@@H](C)CC)C(C)C)C(C)C` [compound 220] (Pentanoyl-VLSLD[dV]PIKLK([γGlu-C20 diacid])KILLEQEKQK[Aib]QREQAETN[Aib]QILAQV-NH2), in the test with Sprague Dawley rats, the “Systolic blood pressure (Mean) % change from baseline, 8 h” value was −17%; the “Systolic blood pressure (Mean) % change from baseline, 12 h” value is −14%; the “Systolic blood pressure (Mean) % change from baseline, 24 h” value is −11%; the Duration of action was above 24 h. At CFR1R receptor, the “Emax (% I)” value stood at 32 % I and the EC50 is above 250 nM. Moreover, on human CRF2a receptor, the midpoint of the response, the EC50, lay at 0.27 nM.
`CC[C@H](C)[C@H](NC(C)=O)C(=O)N[C@H](C(=O)N[C@@H](CC(C)C)C(=O)N[C@@H](CO)C(=O)N[C@@H](CC(C)C)C(=O)N[C@@H](CC(=O)O)C(=O)N[C@@H](C(=O)N1CCC[C@H]1C(=O)N[C@H](C(=O)N[C@@H](CCCCN)C(=O)N[C@@H](CC(C)C)C(=O)N[C@@H](CCCCNC(=O)CC[C@H](NC(=O)CCCCCCCCCCCCCCC(=O)O)C(=O)O)C(=O)N[C@@H](CCCCN)C(=O)N[C@H](C(=O)N[C@@H](CC(C)C)C(=O)N[C@@H](CC(C)C)C(=O)N[C@@H](CCC(=O)O)C(=O)N[C@@H](CCC(N)=O)C(=O)N[C@@H](CCC(=O)O)C(=O)N[C@@H](CCCCN)C(=O)N[C@@H](CCC(N)=O)C(=O)N[C@@H](CCCCN)C(=O)N[C@@H](CCCCN)C(=O)N[C@@H](CCC(N)=O)C(=O)N[C@@H](CCCNC(=N)N)C(=O)N[C@@H](CCC(=O)O)C(=O)N[C@@H](CCC(N)=O)C(=O)N[C@@H](C)C(=O)N[C@@H](CCC(=O)O)C(=O)N[C@H](C(=O)N[C@@H](CC(N)=O)C(=O)N[C@@H](CCC(=O)O)C(=O)N[C@@H](CCC(N)=O)C(=O)N[C@H](C(=O)N[C@@H](CC(C)C)C(=O)N[C@@H](C)C(=O)N[C@@H](CCC(N)=O)C(=O)N[C@H](C(N)=O)C(C)C)[C@@H](C)CC)[C@@H](C)O)[C@@H](C)CC)[C@@H](C)CC)C(C)C)C(C)C` [SEQ ID No. 56, reference compound] (Ac-IVLSLD[dV]PIKLK([γGlu-C16 diacid])KILLEQEKQKKQREQAETNEQILAQV-NH2): in the test with Sprague Dawley rats, the “Systolic blood pressure (Mean) % change from baseline, 8 h” value is on record as −24%; the “Systolic blood pressure (Mean) % change from baseline, 12 h” value is listed as −11%; the “Systolic blood pressure (Mean) % change from baseline, 24 h” value is 2%; the Duration of action is 18 h. Moreover, the “Emax (% I)” value at CFR1R receptor (listed as 10) is 26 % I.
Consider `CCC[C@H](NC(=O)[C@H](CC(N)=O)NC(=O)[C@@H](NC(=O)[C@H](CCC(=O)O)NC(=O)[C@H](C)NC(=O)[C@H](CCC(N)=O)NC(=O)[C@H](CCC(=O)O)NC(=O)[C@H](CCCNC(=N)N)NC(=O)[C@H](CCC(N)=O)NC(=O)[C@H](CCCCN)NC(=O)[C@H](CCCCN)NC(=O)[C@H](CCC(N)=O)NC(=O)[C@H](CCCCN)NC(=O)[C@H](CCC(=O)O)NC(=O)[C@H](CCC(N)=O)NC(=O)[C@H](CCC(=O)O)NC(=O)[C@H](CC(C)C)NC(=O)[C@H](CC(C)C)NC(=O)[C@@H](NC(=O)[C@H](CCCCN)NC(=O)[C@H](CCCCNC(=O)CC[C@H](NC(=O)CCCCCCCCCCCCCCC(=O)O)C(=O)O)NC(=O)[C@H](CC(C)C)NC(=O)[C@H](CCCCN)NC(=O)[C@@H](NC(=O)[C@@H]1CCCN1C(=O)[C@H](NC(=O)[C@H](CC(=O)O)NC(=O)[C@H](CC(C)C)NC(=O)[C@H](CO)NC(=O)[C@H](CC(C)C)NC(=O)[C@@H](NC(=O)[C@@H](NC(C)=O)[C@@H](C)CC)C(C)C)C(C)C)[C@@H](C)CC)[C@@H](C)CC)[C@@H](C)O)C(=O)N[C@@H](CCC(N)=O)C(=O)N[C@H](C(=O)N[C@@H](CC(C)C)C(=O)N[C@@H](C)C(=O)N[C@@H](CCC(N)=O)C(=O)N[C@H](C(N)=O)C(C)C)[C@@H](C)CC` [compound 52] (Ac-IVLSLD[dV]PIKLK([γGlu-C16 diacid])KILLEQEKQKKQREQAETN[Nva]QILAQV-NH2), for which, in the test on Sprague Dawley rats, the “Systolic blood pressure (Mean) % change from baseline, 8 h” value was −28%; the “Systolic blood pressure (Mean) % change from baseline, 12 h” value is −17%; the “Systolic blood pressure (Mean) % change from baseline, 24 h” value came out at 4%; the Duration of action is given as 23 h. Besides, on CFR1R receptor, the “Emax (% I)” value turned out to be 7 % I and the EC50 is above 250 nM. At human CRF2a receptor, this compound gave an EC50 of 0.17 nM.
Take `CCCCCC(=O)N[C@H](C(=O)N[C@@H](CC(C)C)C(=O)N[C@@H](CO)C(=O)N[C@@H](CC(C)C)C(=O)N[C@@H](CC(=O)O)C(=O)N[C@@H](C(=O)N1CCC[C@H]1C(=O)N[C@H](C(=O)N[C@@H](CCCCN)C(=O)N[C@@H](CC(C)C)C(=O)N[C@@H](CCCCNC(=O)CC[C@H](NC(=O)CCCCCCCCCCCCCCC(=O)O)C(=O)O)C(=O)N[C@@H](CCCCN)C(=O)N[C@H](C(=O)N[C@@H](CC(C)C)C(=O)N[C@@H](CC(C)C)C(=O)N[C@@H](CCC(=O)O)C(=O)N[C@@H](CCC(N)=O)C(=O)N[C@@H](CCC(=O)O)C(=O)N[C@@H](CCCCN)C(=O)N[C@@H](CCC(N)=O)C(=O)N[C@@H](CCCCN)C(=O)N[C@@H](CCCCN)C(=O)N[C@@H](CCC(N)=O)C(=O)N[C@@H](CCCNC(=N)N)C(=O)N[C@@H](CCC(=O)O)C(=O)N[C@@H](CCC(N)=O)C(=O)N[C@@H](C)C(=O)N[C@@H](CCC(=O)O)C(=O)N[C@H](C(=O)N[C@@H](CC(N)=O)C(=O)NC1(C(=O)N[C@@H](CCC(N)=O)C(=O)N[C@H](C(=O)N[C@@H](CC(C)C)C(=O)N[C@@H](C)C(=O)N[C@@H](CCC(N)=O)C(=O)N[C@H](C(N)=O)C(C)C)[C@@H](C)CC)CCNCC1)[C@@H](C)O)[C@@H](C)CC)[C@@H](C)CC)C(C)C)C(C)C` [compound 157] (Hexanoyl-VLSLD[dV]PIKLK([γGlu-C16 diacid])KILLEQEKQKKQREQAETN[Api]QILAQV-NH2): at CFR1R receptor, the “Emax (% I)” value is listed as 30 % I and the EC50 is above 250 nM. In addition, the EC50 at human CRF2a receptor came to 0.32 nM.
